As a reminder, the residual activity is the signal under treatment as a percentage of the control signal.

Chain of HIPK2 (human) (Q9H2X6 whole entry, looked up): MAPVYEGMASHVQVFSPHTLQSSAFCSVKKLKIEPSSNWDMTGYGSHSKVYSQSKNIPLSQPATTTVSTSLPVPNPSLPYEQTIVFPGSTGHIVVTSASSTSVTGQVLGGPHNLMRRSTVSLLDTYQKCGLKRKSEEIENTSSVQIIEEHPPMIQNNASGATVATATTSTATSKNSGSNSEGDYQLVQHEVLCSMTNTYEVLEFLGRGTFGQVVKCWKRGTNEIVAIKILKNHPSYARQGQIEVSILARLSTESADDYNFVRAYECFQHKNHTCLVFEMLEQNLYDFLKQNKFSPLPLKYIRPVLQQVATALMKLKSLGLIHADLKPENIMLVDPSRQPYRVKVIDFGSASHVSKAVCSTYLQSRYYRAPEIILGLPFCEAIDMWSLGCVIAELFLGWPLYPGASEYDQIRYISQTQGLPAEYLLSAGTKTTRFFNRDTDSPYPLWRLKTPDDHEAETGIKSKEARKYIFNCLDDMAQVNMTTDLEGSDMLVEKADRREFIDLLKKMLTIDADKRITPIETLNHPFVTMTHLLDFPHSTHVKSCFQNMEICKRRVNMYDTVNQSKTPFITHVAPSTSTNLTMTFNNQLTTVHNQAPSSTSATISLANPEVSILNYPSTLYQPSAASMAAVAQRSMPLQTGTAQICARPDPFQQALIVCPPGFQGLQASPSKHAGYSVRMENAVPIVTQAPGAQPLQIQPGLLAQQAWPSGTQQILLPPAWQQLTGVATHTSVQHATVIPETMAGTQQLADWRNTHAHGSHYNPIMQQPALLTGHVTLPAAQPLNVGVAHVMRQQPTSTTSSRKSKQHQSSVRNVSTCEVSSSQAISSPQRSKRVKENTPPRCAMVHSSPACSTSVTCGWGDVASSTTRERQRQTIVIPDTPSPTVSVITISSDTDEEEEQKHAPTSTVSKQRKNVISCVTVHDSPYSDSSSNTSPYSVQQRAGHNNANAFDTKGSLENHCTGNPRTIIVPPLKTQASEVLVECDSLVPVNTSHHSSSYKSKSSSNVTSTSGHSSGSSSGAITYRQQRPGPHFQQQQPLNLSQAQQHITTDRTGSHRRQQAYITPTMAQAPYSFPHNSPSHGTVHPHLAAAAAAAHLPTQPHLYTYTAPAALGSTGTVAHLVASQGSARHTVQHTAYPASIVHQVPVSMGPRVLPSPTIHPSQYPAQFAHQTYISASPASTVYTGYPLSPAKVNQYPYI
Chain of STK17A (human) (Q9UEE5 whole entry, looked up): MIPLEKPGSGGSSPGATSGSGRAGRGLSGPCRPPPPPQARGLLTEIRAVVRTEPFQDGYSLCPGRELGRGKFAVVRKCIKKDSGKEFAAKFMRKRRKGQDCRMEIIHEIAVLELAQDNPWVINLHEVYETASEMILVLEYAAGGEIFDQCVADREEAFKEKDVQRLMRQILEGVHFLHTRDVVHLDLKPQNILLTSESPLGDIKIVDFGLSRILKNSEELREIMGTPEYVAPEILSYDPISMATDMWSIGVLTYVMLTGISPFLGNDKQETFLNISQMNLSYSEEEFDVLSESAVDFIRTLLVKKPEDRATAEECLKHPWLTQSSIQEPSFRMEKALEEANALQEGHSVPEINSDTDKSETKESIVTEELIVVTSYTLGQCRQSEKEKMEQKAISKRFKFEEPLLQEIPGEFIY
Chain of TBK1 (human) (Q9UHD2 whole entry, looked up): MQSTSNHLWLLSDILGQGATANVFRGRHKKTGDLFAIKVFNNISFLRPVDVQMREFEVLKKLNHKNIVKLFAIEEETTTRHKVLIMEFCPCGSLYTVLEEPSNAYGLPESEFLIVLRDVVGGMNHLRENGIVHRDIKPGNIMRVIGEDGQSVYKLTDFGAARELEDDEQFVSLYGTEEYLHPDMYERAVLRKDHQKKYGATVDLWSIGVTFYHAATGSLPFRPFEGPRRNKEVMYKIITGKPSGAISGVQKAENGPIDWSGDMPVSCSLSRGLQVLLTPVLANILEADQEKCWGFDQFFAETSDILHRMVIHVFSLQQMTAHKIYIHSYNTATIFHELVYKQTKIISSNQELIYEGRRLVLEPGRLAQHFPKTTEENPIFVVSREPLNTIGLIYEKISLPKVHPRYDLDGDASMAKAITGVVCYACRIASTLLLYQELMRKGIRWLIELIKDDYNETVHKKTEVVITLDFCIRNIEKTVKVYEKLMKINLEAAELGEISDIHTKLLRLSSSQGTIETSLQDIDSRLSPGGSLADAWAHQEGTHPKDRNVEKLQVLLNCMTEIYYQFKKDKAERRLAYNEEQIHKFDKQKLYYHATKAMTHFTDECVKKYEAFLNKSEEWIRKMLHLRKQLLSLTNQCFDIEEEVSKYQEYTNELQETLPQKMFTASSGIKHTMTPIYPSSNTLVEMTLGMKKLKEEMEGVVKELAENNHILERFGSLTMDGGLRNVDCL
Chain of PAK3 (human) (O75914 whole entry, looked up): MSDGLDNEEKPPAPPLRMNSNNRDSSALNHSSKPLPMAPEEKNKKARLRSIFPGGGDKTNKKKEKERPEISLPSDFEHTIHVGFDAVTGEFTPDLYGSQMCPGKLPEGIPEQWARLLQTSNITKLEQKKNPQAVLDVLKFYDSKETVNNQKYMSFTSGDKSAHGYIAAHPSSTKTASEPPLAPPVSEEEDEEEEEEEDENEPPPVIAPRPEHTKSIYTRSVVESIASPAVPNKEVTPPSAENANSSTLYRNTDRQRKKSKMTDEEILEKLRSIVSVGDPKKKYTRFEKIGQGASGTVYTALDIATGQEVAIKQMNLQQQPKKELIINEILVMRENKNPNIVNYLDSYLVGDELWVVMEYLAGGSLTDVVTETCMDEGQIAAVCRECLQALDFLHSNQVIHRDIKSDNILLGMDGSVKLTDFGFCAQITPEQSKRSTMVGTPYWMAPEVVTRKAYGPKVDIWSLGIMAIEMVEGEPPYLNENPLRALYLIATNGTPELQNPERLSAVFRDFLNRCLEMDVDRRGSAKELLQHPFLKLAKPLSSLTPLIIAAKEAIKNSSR

The first experiment addresses CDK5 CDK5R1 p35 (human) (UniProt Q00535+Q15078). The experiment can be described thus: radiometric filter-binding kinase assay, Kinase HotSpot. The settings on record: compound 0.5 µM; ATP 10 µM.
For `O=C(CCCc1ccc(-c2ccccc2F)cc1)Nc1ccc(O)cc1`, the residual activity was 92.5%.
As for `CCN(CC)CCCCN1c2ccccc2Oc2ccc(Cl)cc21`, the residual activity stood at 90.3%.
As to `CC(=O)O/N=C1\C(=C2\C(=O)Nc3cc(Br)ccc32)Nc2ccccc21`, the residual activity is 24.7%.

The target in another experiment is TNK2 (human) (UniProt Q07912). The description is as above. The settings on record: compound 0.5 µM; ATP 10 µM.
On to `O=C(CCCc1ccc(-c2ccccc2F)cc1)Nc1ccc(O)cc1`, for which the residual activity was determined as 99.2%.
Same read-out and setting: to `CCN(CC)CCCCN1c2ccccc2Oc2ccc(Cl)cc21` belongs 94.7%; to `CC(=O)O/N=C1\C(=C2\C(=O)Nc3cc(Br)ccc32)Nc2ccccc21`, 74.7%.

For another experiment, the target named is ZAP70 (human) (UniProt P43403). Described as above. The settings on record: compound 0.5 µM; ATP 10 µM.
As to `O=C(CCCc1ccc(-c2ccccc2F)cc1)Nc1ccc(O)cc1`, the residual activity was 99.7%.
Same read-out and setting: under `CCN(CC)CCCCN1c2ccccc2Oc2ccc(Cl)cc21` stands 91.1%; under `CC(=O)O/N=C1\C(=C2\C(=O)Nc3cc(Br)ccc32)Nc2ccccc21`, 102%.

The target in the next experiment is PRKCE (human) (UniProt Q02156). Described as above. The settings on record: compound 0.5 µM; ATP 10 µM.
In the case of `O=C(CCCc1ccc(-c2ccccc2F)cc1)Nc1ccc(O)cc1`, the residual activity amounted to 103%.
For the compound `CCN(CC)CCCCN1c2ccccc2Oc2ccc(Cl)cc21`, the residual activity came out at 109%.
Take `CC(=O)O/N=C1\C(=C2\C(=O)Nc3cc(Br)ccc32)Nc2ccccc21`: the residual activity turned out to be 86.2%.

The next experiment has as its target STK17A (human) (UniProt Q9UEE5). Described as above. The settings on record: compound 0.5 µM; ATP 10 µM.
For the compound `O=C(CCCc1ccc(-c2ccccc2F)cc1)Nc1ccc(O)cc1`, the residual activity came out at 101%.
`CCN(CC)CCCCN1c2ccccc2Oc2ccc(Cl)cc21`: the residual activity worked out at 96.1%.
The same measure, in the same setting: to `CC(=O)O/N=C1\C(=C2\C(=O)Nc3cc(Br)ccc32)Nc2ccccc21` belongs 72.7%.

In another experiment the target is CAMK4 (human) (UniProt Q16566). The description is as above. As to conditions: compound 0.5 µM; ATP 10 µM.
For `O=C(CCCc1ccc(-c2ccccc2F)cc1)Nc1ccc(O)cc1`, the residual activity amounted to 99.6%.
The same measure, in the same setting: to `CCN(CC)CCCCN1c2ccccc2Oc2ccc(Cl)cc21` belongs 98.9%; to `CC(=O)O/N=C1\C(=C2\C(=O)Nc3cc(Br)ccc32)Nc2ccccc21`, 86.1%.

In a further experiment the target is CLK3 (human) (UniProt P49761). The description is as above. As to conditions: compound 0.5 µM; ATP 10 µM.
On to `O=C(CCCc1ccc(-c2ccccc2F)cc1)Nc1ccc(O)cc1`, for which the residual activity was 124%.
Same read-out and setting: under `CCN(CC)CCCCN1c2ccccc2Oc2ccc(Cl)cc21` stands 104%.
Still for that read-out and setting: to `CC(=O)O/N=C1\C(=C2\C(=O)Nc3cc(Br)ccc32)Nc2ccccc21` belongs 75.1%.

The target of a further experiment is PRKCB1 (human) (UniProt P05771). The experiment is described as above. As to conditions: compound 0.5 µM; ATP 10 µM.
Chain of PRKCB1 (human) (P05771 whole entry, looked up): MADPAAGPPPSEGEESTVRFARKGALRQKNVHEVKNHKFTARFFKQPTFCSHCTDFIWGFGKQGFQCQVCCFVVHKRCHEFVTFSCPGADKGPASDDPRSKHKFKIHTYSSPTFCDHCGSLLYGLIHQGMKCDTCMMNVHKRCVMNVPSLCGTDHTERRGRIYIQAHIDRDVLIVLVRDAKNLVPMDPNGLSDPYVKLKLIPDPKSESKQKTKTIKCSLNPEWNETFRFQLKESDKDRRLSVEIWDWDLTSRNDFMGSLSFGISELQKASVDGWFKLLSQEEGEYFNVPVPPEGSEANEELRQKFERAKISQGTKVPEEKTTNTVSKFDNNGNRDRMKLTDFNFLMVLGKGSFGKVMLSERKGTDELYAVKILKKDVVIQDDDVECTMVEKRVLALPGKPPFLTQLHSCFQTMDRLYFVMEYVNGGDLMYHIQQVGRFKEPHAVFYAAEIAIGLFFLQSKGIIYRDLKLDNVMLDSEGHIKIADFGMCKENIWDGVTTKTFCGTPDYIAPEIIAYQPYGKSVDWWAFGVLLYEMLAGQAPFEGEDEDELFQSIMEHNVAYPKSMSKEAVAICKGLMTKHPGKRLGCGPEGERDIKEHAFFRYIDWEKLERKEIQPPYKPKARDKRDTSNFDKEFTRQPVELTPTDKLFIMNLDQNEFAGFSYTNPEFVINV
With `O=C(CCCc1ccc(-c2ccccc2F)cc1)Nc1ccc(O)cc1`, the residual activity amounted to 93.4%.
Same read-out and setting: under `CCN(CC)CCCCN1c2ccccc2Oc2ccc(Cl)cc21` stands 101%.
Still for that read-out and setting: to `CC(=O)O/N=C1\C(=C2\C(=O)Nc3cc(Br)ccc32)Nc2ccccc21` belongs 105%.

The next experiment addresses CHUK (human) (UniProt O15111). The experiment is described as above. As to conditions: compound 0.5 µM; ATP 10 µM.
Turning to `O=C(CCCc1ccc(-c2ccccc2F)cc1)Nc1ccc(O)cc1`, the residual activity is 97.3%.
The same measure, in the same setting: to `CCN(CC)CCCCN1c2ccccc2Oc2ccc(Cl)cc21` belongs 98.8%.
On the same count and under the same terms, under `CC(=O)O/N=C1\C(=C2\C(=O)Nc3cc(Br)ccc32)Nc2ccccc21` stands 98.3%.

A further experiment has as its target IRAK4 (human) (UniProt Q9NWZ3). The description is as above. As to conditions: compound 0.5 µM; ATP 10 µM.
As for `O=C(CCCc1ccc(-c2ccccc2F)cc1)Nc1ccc(O)cc1`, the residual activity amounted to 86.3%.
Still for that read-out and setting: to `CCN(CC)CCCCN1c2ccccc2Oc2ccc(Cl)cc21` belongs 194%.
On the same count and under the same terms, to `CC(=O)O/N=C1\C(=C2\C(=O)Nc3cc(Br)ccc32)Nc2ccccc21` belongs 94.1%.

The next experiment has as its target EPHB3 (human) (UniProt P54753). The experiment is described as above. As to conditions: compound 0.5 µM; ATP 10 µM.
Regarding `O=C(CCCc1ccc(-c2ccccc2F)cc1)Nc1ccc(O)cc1`, the residual activity was found to be 96.5%.
Take `CCN(CC)CCCCN1c2ccccc2Oc2ccc(Cl)cc21`: the residual activity came to 112%.
For `CC(=O)O/N=C1\C(=C2\C(=O)Nc3cc(Br)ccc32)Nc2ccccc21`, the residual activity is 94.2%.

For another experiment, the target named is PRKCA (human) (UniProt P17252). The experiment is described as above. As to conditions: compound 0.5 µM; ATP 10 µM.
As to `O=C(CCCc1ccc(-c2ccccc2F)cc1)Nc1ccc(O)cc1`, the residual activity was found to be 100%.
Same read-out and setting: to `CCN(CC)CCCCN1c2ccccc2Oc2ccc(Cl)cc21` belongs 83%; to `CC(=O)O/N=C1\C(=C2\C(=O)Nc3cc(Br)ccc32)Nc2ccccc21`, 105%.

For another experiment, the target named is CAMK2D (human) (UniProt Q13557). The experiment is described as above. The settings on record: compound 0.5 µM; ATP 10 µM.
With `O=C(CCCc1ccc(-c2ccccc2F)cc1)Nc1ccc(O)cc1`, the residual activity turned out to be 108%.
As for `CCN(CC)CCCCN1c2ccccc2Oc2ccc(Cl)cc21`, the residual activity stood at 105%.
With `CC(=O)O/N=C1\C(=C2\C(=O)Nc3cc(Br)ccc32)Nc2ccccc21`, the residual activity is 53.8%.

Another experiment addresses PAK3 (human) (UniProt O75914). The experiment is described as above. As to conditions: compound 0.5 µM; ATP 10 µM.
On to `O=C(CCCc1ccc(-c2ccccc2F)cc1)Nc1ccc(O)cc1`, for which the residual activity amounted to 104%.
For the compound `CCN(CC)CCCCN1c2ccccc2Oc2ccc(Cl)cc21`, the residual activity came out at 116%.
Same read-out and setting: to `CC(=O)O/N=C1\C(=C2\C(=O)Nc3cc(Br)ccc32)Nc2ccccc21` belongs 99.1%.

In a further experiment the target is CDK5 CDK5R1 p25 (human) (UniProt Q00535+Q15078). Described as above. The settings on record: compound 0.5 µM; ATP 10 µM.
Take `O=C(CCCc1ccc(-c2ccccc2F)cc1)Nc1ccc(O)cc1`: the residual activity is 94.6%.
Consider `CCN(CC)CCCCN1c2ccccc2Oc2ccc(Cl)cc21`, for which the residual activity came out at 91%.
Still for that read-out and setting: under `CC(=O)O/N=C1\C(=C2\C(=O)Nc3cc(Br)ccc32)Nc2ccccc21` stands 51.4%.

The target of the next experiment is AKT3 (human) (UniProt Q9Y243). The experiment is described as above. The settings on record: compound 0.5 µM; ATP 10 µM.
In the case of `O=C(CCCc1ccc(-c2ccccc2F)cc1)Nc1ccc(O)cc1`, the residual activity was 111%.
For `CCN(CC)CCCCN1c2ccccc2Oc2ccc(Cl)cc21`, the residual activity came out at 103%.
Turning to `CC(=O)O/N=C1\C(=C2\C(=O)Nc3cc(Br)ccc32)Nc2ccccc21`, the residual activity stood at 95.1%.

A further experiment addresses TBK1 (human) (UniProt Q9UHD2). Described as above. The settings on record: compound 0.5 µM; ATP 10 µM.
On to `O=C(CCCc1ccc(-c2ccccc2F)cc1)Nc1ccc(O)cc1`, for which the residual activity amounted to 98.2%.
Same read-out and setting: to `CCN(CC)CCCCN1c2ccccc2Oc2ccc(Cl)cc21` belongs 86.3%; to `CC(=O)O/N=C1\C(=C2\C(=O)Nc3cc(Br)ccc32)Nc2ccccc21`, 78.5%.

A further experiment deals with DCLK2 (human) (UniProt Q8N568). The description is as above. The settings on record: compound 0.5 µM; ATP 10 µM.
With `O=C(CCCc1ccc(-c2ccccc2F)cc1)Nc1ccc(O)cc1`, the residual activity was determined as 96.1%.
Still for that read-out and setting: to `CCN(CC)CCCCN1c2ccccc2Oc2ccc(Cl)cc21` belongs 101%.
Same read-out and setting: under `CC(=O)O/N=C1\C(=C2\C(=O)Nc3cc(Br)ccc32)Nc2ccccc21` stands 90.2%.

The target of another experiment is MST1R (human) (UniProt Q04912). The experiment is described as above. As to conditions: compound 0.5 µM; ATP 10 µM.
Chain of MST1R (human) (Q04912 whole entry, looked up): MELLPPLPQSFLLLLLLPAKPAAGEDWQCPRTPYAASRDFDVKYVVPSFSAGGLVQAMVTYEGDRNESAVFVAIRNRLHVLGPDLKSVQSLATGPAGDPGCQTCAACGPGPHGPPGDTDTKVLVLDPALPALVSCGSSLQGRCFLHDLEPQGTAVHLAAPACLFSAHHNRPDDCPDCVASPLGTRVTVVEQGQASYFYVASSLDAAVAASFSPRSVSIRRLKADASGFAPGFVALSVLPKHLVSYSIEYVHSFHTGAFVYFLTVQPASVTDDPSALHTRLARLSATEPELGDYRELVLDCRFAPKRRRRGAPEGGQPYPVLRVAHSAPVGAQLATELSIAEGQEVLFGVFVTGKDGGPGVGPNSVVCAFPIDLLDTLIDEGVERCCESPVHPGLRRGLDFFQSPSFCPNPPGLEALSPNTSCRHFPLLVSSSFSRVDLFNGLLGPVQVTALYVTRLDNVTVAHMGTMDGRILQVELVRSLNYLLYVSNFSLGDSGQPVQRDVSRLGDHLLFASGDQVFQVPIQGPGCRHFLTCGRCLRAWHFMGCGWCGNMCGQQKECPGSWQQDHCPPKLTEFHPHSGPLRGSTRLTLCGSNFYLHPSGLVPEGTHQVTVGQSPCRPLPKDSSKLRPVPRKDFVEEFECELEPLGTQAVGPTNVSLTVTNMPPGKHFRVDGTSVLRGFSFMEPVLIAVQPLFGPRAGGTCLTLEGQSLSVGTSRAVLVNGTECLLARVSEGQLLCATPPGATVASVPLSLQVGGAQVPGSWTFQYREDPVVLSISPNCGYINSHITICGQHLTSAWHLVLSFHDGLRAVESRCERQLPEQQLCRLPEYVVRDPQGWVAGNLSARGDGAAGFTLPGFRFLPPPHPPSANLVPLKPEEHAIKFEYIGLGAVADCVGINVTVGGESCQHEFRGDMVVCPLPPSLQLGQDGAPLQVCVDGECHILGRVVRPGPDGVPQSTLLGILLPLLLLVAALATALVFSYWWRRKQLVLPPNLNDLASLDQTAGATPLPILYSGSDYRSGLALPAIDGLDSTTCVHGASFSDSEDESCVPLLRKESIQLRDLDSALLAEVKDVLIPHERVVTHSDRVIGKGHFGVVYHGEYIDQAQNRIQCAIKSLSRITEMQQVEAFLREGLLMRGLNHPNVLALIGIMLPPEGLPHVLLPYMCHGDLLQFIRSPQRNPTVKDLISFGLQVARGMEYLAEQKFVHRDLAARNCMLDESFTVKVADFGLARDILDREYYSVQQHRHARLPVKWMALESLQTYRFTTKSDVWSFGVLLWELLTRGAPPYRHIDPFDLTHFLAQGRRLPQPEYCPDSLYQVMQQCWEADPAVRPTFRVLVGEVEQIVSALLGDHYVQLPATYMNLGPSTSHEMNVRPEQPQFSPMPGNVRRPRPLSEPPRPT
`O=C(CCCc1ccc(-c2ccccc2F)cc1)Nc1ccc(O)cc1`: the residual activity was 106%.
As for `CCN(CC)CCCCN1c2ccccc2Oc2ccc(Cl)cc21`, the residual activity came to 112%.
The same measure, in the same setting: to `CC(=O)O/N=C1\C(=C2\C(=O)Nc3cc(Br)ccc32)Nc2ccccc21` belongs 92.8%.

A further experiment concerns the target DAPK3 (human) (UniProt O43293). The description is as above. As to conditions: compound 0.5 µM; ATP 10 µM.
Regarding `O=C(CCCc1ccc(-c2ccccc2F)cc1)Nc1ccc(O)cc1`, the residual activity stood at 104%.
The same measure, in the same setting: under `CCN(CC)CCCCN1c2ccccc2Oc2ccc(Cl)cc21` stands 106%; under `CC(=O)O/N=C1\C(=C2\C(=O)Nc3cc(Br)ccc32)Nc2ccccc21`, 82.2%.

The next experiment has as its target HIPK2 (human) (UniProt Q9H2X6). Described as above. As to conditions: compound 0.5 µM; ATP 10 µM.
Regarding `O=C(CCCc1ccc(-c2ccccc2F)cc1)Nc1ccc(O)cc1`, the residual activity was 112%.
Same read-out and setting: under `CCN(CC)CCCCN1c2ccccc2Oc2ccc(Cl)cc21` stands 118%; under `CC(=O)O/N=C1\C(=C2\C(=O)Nc3cc(Br)ccc32)Nc2ccccc21`, 99.1%.

These data come from the kinase profiling compilation of Christmann-Franck et al. (2016).
